Data reported in patent publication EP0024372A1, “Derivatives of clavulanic acid, their preparation and pharmaceutical compositions containing them” (BEECHAM GROUP PLC, priority 1979, dated 1981).

What was measured:
Experiment in all cases: standard MIC microtitre synergy test with ampicillin
Assay type in all cases: cell-based
[1] = system: Staphylococcus aureus Russell; conditions: one cell spanning Inhibitor Concentration 20, 5 and 1 μg/ml
Source text: (§1) In a standard MIC microtitre synergy test with ampicillin the following results were obtained with the compound of Example 7.

Proteus mirabilis C889 = system: Proteus mirabilis C889
Source text: as §1

E.coli JT39 = system: E.coli JT39
Source text: as §1

Klebsiella aerogenes E70 = system: Klebsiella aerogenes E70
Source text: as §1

[2] = Inhibitor Concentration 1 μg/ml
[3] = Inhibitor Concentration 5 μg/ml
[4] = Inhibitor Concentration 20 μg/ml

In the case of `O=C(O)[C@H]1/C(=C/Cc2ccccc2O)O[C@@H]2CC(=O)N21` [Example 7, Lithium 9-(2-hydroxyphenyl)deoxyclavulanate], the “MIC microtitre synergy test with ampicillin” value (shortened to “MIC microtitre synergy test”) [1] is reported as “- Inhibition -”, the “MIC microtitre synergy test” value (Proteus mirabilis C889; [2]) is reported as 16 and the “MIC microtitre synergy test” value (Proteus mirabilis C889; [3]) is reported as 16. For the same compound, the “MIC microtitre synergy test” value (Proteus mirabilis C889; [4]) was 8, the “MIC microtitre synergy test” value (E.coli JT39; [2]) was 125 and the “MIC microtitre synergy test” value (E.coli JT39; [3]) was 16. The “MIC microtitre synergy test” value (E.coli JT39; [4]) was 2, the “MIC microtitre synergy test” value (Klebsiella aerogenes E70; [2]) was 12.5 and the “MIC microtitre synergy test” value (Klebsiella aerogenes E70; [3]) was 6.25. For the same compound, the “MIC microtitre synergy test” value (Klebsiella aerogenes E70; [4]) was 3.1.
